These results are taken from patent US11466024B2, “Bicylic compound acting as an inhibitor” (CHIA TAI TIANQING PHARMACEUTICAL GROUP CO., LTD., priority 2017, dated 2022).

Structures are written as SMILES.

In this data set the target is hERG potassium channel (Homo sapiens, UniProt Q12809). Briefly: in vitro. As to conditions: human. The protocol: CHO-hERG cells (from Shanghai Institute of Materia Medica, Chinese Academy of Sciences) were cultured in a 175 cm^2 culture flask. When the cell density reached 60% to 80%, the culture medium was removed, the cells were washed once with 7 mL of PBS, and then 3 mL of Detachin was added for cell detachment. After complete cell detachment, 7 mL of culture medium were added for neutralization, the mixture was then centrifuged, the supernatant was aspirated, and another 5 mL of culture medium was added for re-suspension, so as to ensure that the cell density was 2×10^6/mL to 5×10^6/mL.
The single-cell giga-seal and the formation of whole-cell mode were both completed automatically by a Q patch instrument. After a whole-cell recording mode was achieved, the cells were clamped at −80 mV, exposed to a front voltage of −50 mV for 50 ms prior to a depolarizing stimulus (5 s, +40 mV), and then repolarized to −50 mV for 5 s, followed by a recovery to −80 mV. This voltage stimulation was applied every 15 s and recorded for 2 minutes, and the extracellular fluid was then administered, followed by a record lasting for 5 minutes. Thereafter, the administration process was started. Starting from the lowest test concentration, the compounds were administered at each test concentration and the process lasted for 2.5 minutes. […] At least 3 cells (n≥3) were tested at each concentration.
20 mM stock solution of the compound was diluted with the extracellular fluid, and 5 μL of the 20 mM stock solution of the compound was taken, added to 2495 μL of the extracellular fluid, and diluted by 500 times to 40 μM. Thereafter, the resulting mixture was serially and successively diluted by 3 times in an extracellular fluid containing 0.2% DMSO, so as to obtain a final concentration to be tested.
The experimental data was analyzed by XLFit software.

hERG potassium channel, sequence (Q12809 whole entry): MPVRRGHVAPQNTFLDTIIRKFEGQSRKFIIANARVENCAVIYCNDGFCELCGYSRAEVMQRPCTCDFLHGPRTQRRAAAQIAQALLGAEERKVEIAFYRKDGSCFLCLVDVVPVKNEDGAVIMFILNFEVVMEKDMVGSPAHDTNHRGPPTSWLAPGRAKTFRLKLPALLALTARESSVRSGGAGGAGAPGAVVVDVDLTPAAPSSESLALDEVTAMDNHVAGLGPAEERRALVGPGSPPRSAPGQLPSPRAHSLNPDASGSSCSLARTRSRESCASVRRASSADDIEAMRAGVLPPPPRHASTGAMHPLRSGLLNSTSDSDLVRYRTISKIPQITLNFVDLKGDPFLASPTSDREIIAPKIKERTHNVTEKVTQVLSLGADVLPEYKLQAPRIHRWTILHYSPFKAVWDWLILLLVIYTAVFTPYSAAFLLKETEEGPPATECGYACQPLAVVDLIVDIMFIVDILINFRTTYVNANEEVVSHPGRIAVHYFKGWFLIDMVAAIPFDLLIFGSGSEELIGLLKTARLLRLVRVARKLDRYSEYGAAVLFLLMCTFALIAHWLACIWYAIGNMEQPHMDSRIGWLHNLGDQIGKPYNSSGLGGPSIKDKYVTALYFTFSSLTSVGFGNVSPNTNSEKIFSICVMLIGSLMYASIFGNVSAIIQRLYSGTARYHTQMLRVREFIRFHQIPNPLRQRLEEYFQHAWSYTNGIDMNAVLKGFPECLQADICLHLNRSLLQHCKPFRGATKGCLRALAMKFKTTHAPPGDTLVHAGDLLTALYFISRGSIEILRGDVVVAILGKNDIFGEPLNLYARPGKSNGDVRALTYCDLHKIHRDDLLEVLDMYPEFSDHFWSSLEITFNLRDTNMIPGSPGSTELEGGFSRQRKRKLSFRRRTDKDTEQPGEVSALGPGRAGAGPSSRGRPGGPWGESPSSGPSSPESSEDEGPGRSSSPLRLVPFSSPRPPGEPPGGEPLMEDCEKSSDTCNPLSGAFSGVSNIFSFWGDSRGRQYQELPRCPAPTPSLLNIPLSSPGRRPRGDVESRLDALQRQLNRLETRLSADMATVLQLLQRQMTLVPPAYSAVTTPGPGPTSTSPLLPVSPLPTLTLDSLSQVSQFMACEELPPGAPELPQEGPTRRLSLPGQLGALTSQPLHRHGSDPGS

The inhibition is the change of the read-out against control, counted positive when it falls. Read a high inhibition as a response far below the control. Turning to `COc1cc(N)c(Cl)cc1C(=O)NC1CCN(CCCOc2ccc(F)cc2)CC1OC` (stereo not shown) [Cisapride, reference compound], the inhibition at 2.5 min, 40 μM came out at 89.6%.
